In the NIST ThermoML archive (doi:10.1016/j.jct.2004.12.008):
Numbers after ± are expanded uncertainties.

Experiment: xn = mol fraction of the nth substance listed
Conditions: 101 kPa, Liquid

O=[N+]([O-])c1ccccc1 [nitrobenzene] + Cc1cccc(C)c1
Conditions	mass density [kg/m3]
293.15 K, x2 = 0	1202.95 ± 2.3
293.15 K, x2 = 0.0549	1181.56 ± 2.1
293.15 K, x2 = 0.1248	1154.92 ± 1.9
293.15 K, x2 = 0.1832	1133.14 ± 1.8
293.15 K, x2 = 0.2489	1109.13 ± 1.7
293.15 K, x2 = 0.3134	1086.03 ± 1.5
293.15 K, x2 = 0.3681	1066.8 ± 1.4
293.15 K, x2 = 0.4234	1047.66 ± 1.3
293.15 K, x2 = 0.4892	1025.28 ± 1.2
293.15 K, x2 = 0.5321	1010.91 ± 1.1
293.15 K, x2 = 0.6013	988.09 ± 1.2
293.15 K, x2 = 0.6539	971.01 ± 1.3
293.15 K, x2 = 0.7242	948.56 ± 1.6
293.15 K, x2 = 0.7811	930.68 ± 1.8
293.15 K, x2 = 0.8631	905.36 ± 2.1
293.15 K, x2 = 0.9321	884.44 ± 2.3
303.15 K, x2 = 0	1193.56 ± 2.2
303.15 K, x2 = 0.0478	1174.85 ± 2.1
303.15 K, x2 = 0.1132	1149.78 ± 1.9
303.15 K, x2 = 0.1812	1124.32 ± 1.7
303.15 K, x2 = 0.2343	1104.85 ± 1.6
303.15 K, x2 = 0.2943	1083.27 ± 1.5
303.15 K, x2 = 0.3535	1062.36 ± 1.4
303.15 K, x2 = 0.4143	1041.29 ± 1.2
303.15 K, x2 = 0.4711	1021.95 ± 1.1
303.15 K, x2 = 0.5243	1004.13 ± 1
303.15 K, x2 = 0.6123	975.24 ± 1.3
303.15 K, x2 = 0.6811	953.14 ± 1.5
303.15 K, x2 = 0.7423	933.82 ± 1.7
303.15 K, x2 = 0.8132	911.82 ± 1.9
303.15 K, x2 = 0.8834	890.44 ± 2.2
303.15 K, x2 = 0.9432	872.53 ± 2.4
313.15 K, x2 = 0	1183.37 ± 2.1
313.15 K, x2 = 0.0723	1155.17 ± 1.9
313.15 K, x2 = 0.1289	1133.64 ± 1.8
313.15 K, x2 = 0.1732	1117.09 ± 1.7
313.15 K, x2 = 0.2212	1099.45 ± 1.6
313.15 K, x2 = 0.2811	1077.85 ± 1.4
313.15 K, x2 = 0.3635	1048.82 ± 1.2
313.15 K, x2 = 0.4244	1027.87 ± 1.1
313.15 K, x2 = 0.4823	1008.31 ± 1
313.15 K, x2 = 0.5423	988.4 ± 1.1
313.15 K, x2 = 0.6131	965.35 ± 1.3
313.15 K, x2 = 0.6732	946.15 ± 1.5
313.15 K, x2 = 0.749	922.4 ± 1.8
313.15 K, x2 = 0.8313	897.16 ± 2.1
313.15 K, x2 = 0.8724	884.76 ± 2.2
313.15 K, x2 = 0.9331	866.7 ± 2.4
323.15 K, x2 = 0	1172.38 ± 2
323.15 K, x2 = 0.0698	1145.18 ± 1.9
323.15 K, x2 = 0.1321	1121.54 ± 1.7
323.15 K, x2 = 0.1832	1102.55 ± 1.6
323.15 K, x2 = 0.2576	1075.53 ± 1.4
323.15 K, x2 = 0.3139	1055.55 ± 1.3
323.15 K, x2 = 0.3781	1033.23 ± 1.1
323.15 K, x2 = 0.4527	1007.89 ± 0.98
323.15 K, x2 = 0.5198	985.6 ± 1.1
323.15 K, x2 = 0.5631	971.45 ± 1.2
323.15 K, x2 = 0.6398	946.86 ± 1.5
323.15 K, x2 = 0.7043	926.6 ± 1.7
323.15 K, x2 = 0.7731	905.4 ± 1.9
323.15 K, x2 = 0.8343	886.88 ± 2.1
323.15 K, x2 = 0.8623	878.51 ± 2.2
323.15 K, x2 = 0.9423	854.95 ± 2.5
333.15 K, x2 = 0	1160.59 ± 1.9
333.15 K, x2 = 0.0499	1141.14 ± 1.8
333.15 K, x2 = 0.1244	1112.83 ± 1.6
333.15 K, x2 = 0.1674	1096.86 ± 1.5
333.15 K, x2 = 0.234	1072.65 ± 1.3
333.15 K, x2 = 0.3089	1046.1 ± 1.2
333.15 K, x2 = 0.3598	1028.47 ± 1.1
333.15 K, x2 = 0.4242	1006.59 ± 0.95
333.15 K, x2 = 0.4972	982.35 ± 1.1
333.15 K, x2 = 0.5672	959.63 ± 1.3
333.15 K, x2 = 0.6319	939.07 ± 1.5
333.15 K, x2 = 0.7133	913.77 ± 1.8
333.15 K, x2 = 0.7632	898.55 ± 2
333.15 K, x2 = 0.8347	877.13 ± 2.2
333.15 K, x2 = 0.8824	863.08 ± 2.4
333.15 K, x2 = 0.9323	848.58 ± 2.5
343.15 K, x2 = 0	1148 ± 1.9
343.15 K, x2 = 0.0598	1124.88 ± 1.7
343.15 K, x2 = 0.1123	1105.06 ± 1.5
343.15 K, x2 = 0.1842	1078.58 ± 1.4
343.15 K, x2 = 0.2542	1053.5 ± 1.2
343.15 K, x2 = 0.3243	1029.04 ± 1.1
343.15 K, x2 = 0.3831	1008.98 ± 0.93
343.15 K, x2 = 0.4425	989.14 ± 0.99
343.15 K, x2 = 0.5131	966.07 ± 1.2
343.15 K, x2 = 0.5728	946.96 ± 1.4
343.15 K, x2 = 0.6392	926.14 ± 1.6
343.15 K, x2 = 0.6901	910.47 ± 1.8
343.15 K, x2 = 0.7532	891.38 ± 2
343.15 K, x2 = 0.8242	870.31 ± 2.2
343.15 K, x2 = 0.8731	856.05 ± 2.4
343.15 K, x2 = 0.9238	841.48 ± 2.6
353.15 K, x2 = 0	1134.61 ± 1.8
353.15 K, x2 = 0.0532	1114.19 ± 1.6
353.15 K, x2 = 0.1289	1085.92 ± 1.4
353.15 K, x2 = 0.1984	1060.73 ± 1.2
353.15 K, x2 = 0.2429	1044.96 ± 1.1
353.15 K, x2 = 0.3092	1021.96 ± 0.98
353.15 K, x2 = 0.3711	1000.98 ± 0.85
353.15 K, x2 = 0.4248	983.16 ± 1
353.15 K, x2 = 0.4891	962.26 ± 1.2
353.15 K, x2 = 0.5518	942.3 ± 1.4
353.15 K, x2 = 0.6138	922.97 ± 1.6
353.15 K, x2 = 0.6731	904.84 ± 1.8
353.15 K, x2 = 0.7294	887.93 ± 2
353.15 K, x2 = 0.8013	866.76 ± 2.2
353.15 K, x2 = 0.8673	847.71 ± 2.5
353.15 K, x2 = 0.9451	825.73 ± 2.7
